Source: patent US8692017B2, “Carbon linked modulators of gamma-secretase” (Janssen Pharmaceutica, N.V., priority 2007, dated 2014)

Biological target: T1, γ-secretase (Homo sapiens, UniProt P49768)
T1 construct: endogenous in cells; host or cells: SKNBE2 cells carrying APP 695 wild type
Experiment: Screening for γ-secretase-modulating activity (Aβ42 lowering) in SKNBE2 cells carrying the APP 695-wild type
Type: cell-based
Conditions: @ 1 uM; SKNBE2 cells carrying APP 695-wild type; read-out: Aβ % inhibition @ 1 uM
Description: Screening was carried out using SKNBE2 cells carrying the APP 695-wild type, grown in DMEM/NUT-mix F12 (HAM) provided by Gibco (cat no. 31330-38) containing 5% Serum/Fe supplemented with 1% non-essential amino acids.
Cells were grown to near confluency.
The screening was performed using the assay as described in Citron et al (1997) Nature Medicine 3: 67.

Row | SMILES | inhibition at 1 µM
1 | CC(C)CC(C(=O)O)c1cc(/C=C\c2ccc(Cl)cc2)cc(-c2ccc(C(F)(F)F)cc2)c1 (centres unmarked) [Compound 21, 2-{5-[2-(4-Chloro-phenyl)-vinyl]-4′-trifluoromethyl-biphenyl-3-yl}-4-methyl-pentanoic acid] | 34%
2 | CC(C)CC(C(=O)O)c1cc(C(=O)c2cc(F)cc(F)c2)cc(-c2ccc(C(F)(F)F)cc2)c1 (centres unmarked) [Compound 7, 2-[5-(3,5-Difluoro-benzoyl)-4′-trifluoromethyl-biphenyl-3-yl]-4-methyl-pentanoic acid] | 50%
3 | CC(C)CC(C(=O)O)c1cc(C(=O)c2ccc(C#N)cc2)cc(-c2ccc(C(F)(F)F)cc2)c1 (centres unmarked) [Compound 8, 2-[5-(4-Cyano-benzoyl)-4′-trifluoromethyl-biphenyl-3-yl]-4-methyl-pentanoic acid] | 25%
4 | CC(C)CC(C(=O)O)c1cc(-c2ccc(C(F)(F)F)cc2)cc(C(O)c2cc(F)cc(F)c2)c1 (centres unmarked) [Compound 9, 2-{5-[(3,5-Difluoro-phenyl)-hydroxy-methyl]-4′-trifluoromethyl-biphenyl-3-yl}-4-methyl-pentanoic acid] | 14%

More lines, now with the values ahead:

Row | inhibition at 1 µM | SMILES
5 | 18% | CC(C)CC(C(=O)O)c1cc(C#Cc2ccc(Cl)cc2)cc(-c2ccc(C(F)(F)F)cc2)c1 (centres unmarked) [Compound 12, 2-[5-(4-Chloro-phenylethynyl)-4′-trifluoromethyl-biphenyl-3-yl]-4-methyl-pentanoic acid]
6 | 28% | CC(C)CC(C(=O)O)c1cc(C#Cc2cc(C(F)(F)F)cc(C(F)(F)F)c2)cc(-c2ccc(C(F)(F)F)cc2)c1 (centres unmarked) [Compound 13, 2-[5-(3,5-Bis-trifluoromethyl-phenylethynyl)-4′-trifluoromethyl-biphenyl-3-yl]-4-methyl-pentanoic acid]
7 | 46% | CC(C)CC(C(=O)O)c1cc(/C=C\c2ccc(C(F)(F)F)cc2)cc(-c2ccc(C(F)(F)F)cc2)c1 (centres unmarked) [Compound 22, 4-Methyl-2-{4′-trifluoromethyl-5-[2-(4-trifluoromethyl-phenyl)-vinyl]-biphenyl-3-yl}-pentanoic acid]
8 | 10% | CC(C)CC(C(=O)O)c1cc(C#Cc2ccc(C(F)(F)F)cc2)cc(-c2ccc(C(F)(F)F)cc2)c1 (centres unmarked) [Compound 11, 4-Methyl-2-[4′-trifluoromethyl-5-(4-trifluoromethyl-phenylethynyl)-biphenyl-3-yl]-pentanoic acid]
9 | 53% | CC(C)CC(C(=O)O)c1cc(C#Cc2cc(F)cc(F)c2)cc(-c2ccc(C(F)(F)F)cc2)c1 (centres unmarked) [Compound 10, 2-[5-(3,5-Difluoro-phenylethynyl)-4′-trifluoromethyl-biphenyl-3-yl]-4-methyl-pentanoic acid]
10 | 72% | CC(C)CC(C(=O)O)c1cc(/C=C/c2cc(C(F)(F)F)cc(C(F)(F)F)c2)cc(-c2ccc(C(F)(F)F)cc2)c1 (centres unmarked) [Compound 23, 2-{5-[2-(3,5-Bis-trifluoromethyl-phenyl)-vinyl]-4′-trifluoromethyl-biphenyl-3-yl}-4-methyl-pentanoic acid]

Same assay, conditions: SKNBE2 cells carrying APP 695-wild type; read-out: Aβ 42 lowering EC50

Row | SMILES | EC50
11 | CC(C)CC(C(=O)O)c1cc(Cc2ccc(F)cc2F)cc(-c2ccc(C(F)(F)F)cc2)c1 (centres unmarked) [Compound 3, 2-[5-(2,4-Difluoro-benzyl)-4′-trifluoromethyl-biphenyl-3-yl]-4-methyl-pentanoic acid] | 2170 nM
12 | Cc1ccc(CCc2cc(-c3ccc(C(F)(F)F)cc3)cc(C(CC(C)C)C(=O)O)c2)cc1 (centres unmarked) [Compound 28, 4-Methyl-2-[5-(2-p-tolyl-ethyl)-4′-trifluoromethyl-biphenyl-3-yl]-pentanoic acid] | 350 nM
13 | CC(C)CC(C(=O)O)c1cc(Cc2cc(Cl)cc(Cl)c2)cc(-c2ccc(C(F)(F)F)cc2)c1 (centres unmarked) [Compound 2, 2-[5-(3,5-Dichloro-benzyl)-4′-trifluoromethyl-biphenyl-3-yl]-4-methyl-pentanoic acid] | 570 nM
14 | Cc1ccc(/C=C/c2cc(-c3ccc(C(F)(F)F)cc3)cc(C(CC(C)C)C(=O)O)c2)cc1 (centres unmarked) [Compound 16, 4-Methyl-2-[5-(2-p-tolyl-vinyl)-4′-trifluoromethyl-biphenyl-3-yl]-pentanoic acid] | 660 nM
15 | CC(C)CC(C(=O)O)c1cc(Cc2cc(F)cc(F)c2)cc(-c2ccc(C(F)(F)F)cc2)c1 (centres unmarked) [Compound 6, 2-[5-(3,5-Difluoro-benzyl)-4′-trifluoromethyl-biphenyl-3-yl]-4-methyl-pentanoic acid] | 740 nM
16 | CC(C)CC(C(=O)O)c1cc(/C=C/c2cc(F)cc(F)c2)cc(-c2ccc(C(F)(F)F)cc2)c1 (centres unmarked) [Compound 19, 2-{5-[2-(3,5-Difluoro-phenyl)-vinyl]-4′-trifluoromethyl-biphenyl-3-yl}-4-methyl-pentanoic acid] | 450 nM
17 | CC(C)CC(C(=O)O)c1cc(CCc2ccc(F)cc2)cc(-c2ccc(C(F)(F)F)cc2)c1 (centres unmarked) [Compound 27, 2-{5-[2-(4-Fluoro-phenyl)-ethyl]-4′-trifluoromethyl-biphenyl-3-yl}-4-methyl-pentanoic acid] | 580 nM
18 | CC(C)CC(C(=O)O)c1cc(/C=C/c2ccc(F)cc2)cc(-c2ccc(C(F)(F)F)cc2)c1 (centres unmarked) [Compound 18, 2-{5-[2-(4-Fluoro-phenyl)-vinyl]-4′-trifluoromethyl-biphenyl-3-yl}-4-methyl-pentanoic acid] | 390 nM
19 | COc1ccc(/C=C/c2cc(-c3ccc(C(F)(F)F)cc3)cc(C(CC(C)C)C(=O)O)c2)cc1 (centres unmarked) [Compound 20, 2-{5-[2-(4-Methoxy-phenyl)-vinyl]-4′-trifluoromethyl-biphenyl-3-yl}-4-methyl-pentanoic acid] | 610 nM
20 | CC(C)CC(C(=O)O)c1cc(C(=O)c2cc(Cl)cc(Cl)c2)cc(-c2ccc(C(F)(F)F)cc2)c1 (centres unmarked) [Compound 1, 2-[5-(3,5-Dichloro-benzoyl)-4′-trifluoromethyl-biphenyl-3-yl]-4-methyl-pentanoic acid] | 710 nM
21 | CC(C)CC(C(=O)O)c1cc(/C=C/c2ccc(-c3ccccc3)cc2)cc(-c2ccc(C(F)(F)F)cc2)c1 (centres unmarked) [Compound 14, 2-[5-(2-Biphenyl-4-yl-vinyl)-4′-trifluoromethyl-biphenyl-3-yl]-4-methyl-pentanoic acid] | 150 nM
22 | CC(C)CC(C(=O)O)c1cc(CCc2ccc(-c3ccccc3)cc2)cc(-c2ccc(C(F)(F)F)cc2)c1 (centres unmarked) [Compound 24, 2-[5-(2-Biphenyl-4-yl-ethyl)-4′-trifluoromethyl-biphenyl-3-yl]-4-methyl-pentanoic acid] | 210 nM
23 | CC(C)CC(C(=O)O)c1cc(Cc2cnccc2Cl)cc(-c2ccc(C(F)(F)F)cc2)c1 (centres unmarked) [Compound 4, 2-[5-(4-Chloro-pyridin-3-ylmethyl)-4′-trifluoromethyl-biphenyl-3-yl]-4-methyl-pentanoic acid] | 2750 nM
24 | CC(C)CC(C(=O)O)c1cc(CCc2cc(F)cc(F)c2)cc(-c2ccc(C(F)(F)F)cc2)c1 (centres unmarked) [Compound 29, 2-{5-[2-(3,5-Difluoro-phenyl)-ethyl]-4′-trifluoromethyl-biphenyl-3-yl}-4-methyl-pentanoic acid] | 410 nM
25 | CC(C)CC(C(=O)O)c1cc(CCc2ccc(Cl)cc2)cc(-c2ccc(C(F)(F)F)cc2)c1 (centres unmarked) [Compound 26, 2-{5-[2-(4-Chloro-phenyl)-ethyl]-4′-trifluoromethyl-biphenyl-3-yl}-4-methyl-pentanoic acid] | 740 nM
26 | CC(C)CC(C(=O)O)c1cc(/C=C/c2ccc(Cl)cc2)cc(-c2ccc(C(F)(F)F)cc2)c1 (centres unmarked) [Compound 17, 2-{5-[2-(4-Chloro-phenyl)-vinyl]-4′-trifluoromethyl-biphenyl-3-yl}-4-methyl-pentanoic acid] | 360 nM

Now from value to compound:

Row | EC50 | SMILES
27 | 670 nM | CC(C)CC(C(=O)O)c1cc(CCc2ccc(C(F)(F)F)cc2)cc(-c2ccc(C(F)(F)F)cc2)c1 (centres unmarked) [Compound 25, 4-Methyl-2-{4′-trifluoromethyl-5-[2-(4-trifluoromethyl-phenyl)-ethyl]-biphenyl-3-yl}-pentanoic acid]
28 | 1130 nM | CC(C)CC(C(=O)O)c1cc(Cc2cccc(C(F)(F)F)c2)cc(-c2ccc(C(F)(F)F)cc2)c1 (centres unmarked) [Compound 5, 4-Methyl-2-[4′-trifluoromethyl-5-(3-trifluoromethyl-benzyl)-biphenyl-3-yl]-pentanoic acid]
29 | 400 nM | CC(C)CC(C(=O)O)c1cc(/C=C/c2ccc(C(F)(F)F)cc2)cc(-c2ccc(C(F)(F)F)cc2)c1 (centres unmarked) [Compound 15, 4-Methyl-2-{4′-trifluoromethyl-5-[2-(4-trifluoromethyl-phenyl)-vinyl]-biphenyl-3-yl}-pentanoic acid]
